# In patent US7494996B2 (priority 2000, dated 2009):
# What was measured:
# [1] = test system: Sphaerotheca fuliginea; experiment: Cucumber Powdery Mildew (CPM) protectant test in the greenhouse; assay type: in vivo; settings: 100 is total disease control, 0 is no disease control; for Cucumber Powdery Mildew (CPM) protectant fungicide data, percent control: 300 g/ha
# Protocol: Plants used in the fungicide testing program were grown in 2-¼-inch (5.7-cm). square pots containing RediEarth propagation substrate. The plants were raised under greenhouse conditions. The rice plants were 12-days-old and cucumbers were 13-days-old at the time of spraying with chemical treatments.
# The sample of the experimental chemical was weighed and dissolved in an acetone-methanol-water solution (A/M/W at 1:1:2 ratio by volume).
# After sprayer calibration, the test solutions were poured into the fungicide sprayer. The fungicide sprayer contains three spray nozzles, located approximately 10 cm above and to the sides of the plants. The spray produced by the nozzles results in uniform coverage of both the upper and lower parts of the plant leaves. After spraying, the treated plants were placed in a drying chamber for 4 hours, prior to sorting.
# Cucumber Powdery Mildew (CPM), caused by the fungus Sphaerotheca fuliginea, was maintained on large cucumber plants. For inoculum preparation, five to eight leaves depending on size, completely covered with powdery mildew spores, were collected. The leaves were placed in a glass jar and covered with 500 ml of water, containing 5 drops of Tween-80. The material was filtered through two layers of cheesecloth to remove leaf fragments. The spore count was adjusted to 2×10^5 spores per ml.
# Cucumber plants, cv. “Bush Champion,” were used for this test. The plants were thinned to one per pot after the cotyledons were fully developed. Two days before the test, the small leaves and meristem region were removed, leaving only the cotyledons and one large true leaf.
# The protectant tests required that the cucumber plants be inoculated 1 day after spraying with the chemical treatment. The plants were inoculated with a hand-held spray bottle with the suspension of fungal spores. The leaves were lightly misted on the upper surface from two different spray directions. Disease development occurred in the greenhouse.
# After seven days, the plants were evaluated for percent of disease control. The results are reported as percent control; 100 is total disease control, 0 is no disease control.
# [2] = test system: Pyricularia oryzae; experiment: whole plant or invertebrate; assay type: in vivo; settings: 100 is total disease control, 0 is no disease control; for Rice Blast (RB) protectant fungicide data, percent control: 300 g/ha, greenhouse
SMILES,"Cucumber Powdery Mildew (CPM) protectant fungicide data, percent control [1]","Rice Blast (RB) protectant fungicide data, percent control [2]","pest or weed control at 300 g/ha ([1]; Podosphaera fuliginea, topical, 168 h, read-out: Cucumber Powdery Mildew (CPM) protectant fungicide data, percent control)","pest or weed control at 300 g/ha ([2]; Pyricularia oryzae, topical, 144 h, read-out: Rice Blast (RB) protectant fungicide data, percent control, protectant, 300 g/ha, greenhouse)"
CCCCN1N=C(C)NC(c2ccc(OC)cc2)C1=O (stereo not drawn) [Compound 79],50 percent control,75 percent control,–,–
CCCCN1N=C(C)NC(c2cccc(OC)c2)C1=O (stereo not drawn) [Compound 80],50 percent control,0 percent control,–,–
CCCCN1N=C(C)NC(c2c(C)cc(C)cc2C)C1=O (stereo not drawn) [Compound 82],25 percent control,0 percent control,–,–
"CCCCN1N=C(c2ccccc2O)NCC1=O [Compound 83, 1-n-Butyl-3-(2-hydroxyphenyl)-4,5-dihydro-1,2,4-triazin-6-one]",–,–,0%,80%
O=C1CNC(c2cccc(F)c2)=NN1CC(F)(F)F [Compound 84],85 percent control,80 percent control,–,–
CCCCN1N=C(c2ccc(Cl)c(Cl)c2)N(C(=O)C(=O)OC)CC1=O [Compound 85],50 percent control,100 percent control,–,–
O=C1CNC(c2cccc(C(F)(F)F)c2)=NN1CC1CC1 [Compound 86],80 percent control,99 percent control,–,–
C#CCN1CC(=O)N(CC#C)N=C1c1cccc(C(F)(F)F)c1 [Compound 87],0 percent control,90 percent control,–,–
C#CCN1N=C(c2cccc(C(F)(F)F)c2)NCC1=O [Compound 88],50 percent control,100 percent control,–,–
C#CCN1CC(=O)N(CC(F)(F)F)N=C1c1cccc(C(F)(F)F)c1 [Compound 89],0 percent control,75 percent control,–,–
CCCCN1N=C(C)NC(c2ccccc2)C1=O (stereo not drawn) [Compound 92],50 percent control,0 percent control,–,–
CCCCN1N=C(C)NC(c2ccc(F)cc2)C1=O (stereo not drawn) [Compound 93],75 percent control,0 percent control,–,–
CCCCN1N=C(C)NC(c2ccc(F)c(C)c2)C1=O (stereo not drawn) [Compound 94],75 percent control,0 percent control,–,–
CCCCN1N=C(C)NC(c2ccc(C(C)(C)C)cc2)C1=O (stereo not drawn) [Compound 95],75 percent control,25 percent control,–,–
O=C1CNC(c2ccccc2F)=NN1CC(F)(F)F [Compound 96],75 percent control,50 percent control,–,–
O=C1CNC(c2ccccc2Cl)=NN1CC(F)(F)F [Compound 97],85 percent control,0 percent control,–,–
O=C1CNC(c2ccc(F)c(F)c2)=NN1CC(F)(F)F [Compound 98],75 percent control,85 percent control,–,–
O=C1CNC(c2ccc(Cl)c(Cl)c2)=NN1CC(F)(F)F [Compound 99],80 percent control,100 percent control,–,–

SMILES,"Cucumber Powdery Mildew (CPM) protectant fungicide data, percent control [1]","Rice Blast (RB) protectant fungicide data, percent control [2]","pest or weed control at 300 g/ha ([1]; Podosphaera fuliginea, topical, 168 h, read-out: Cucumber Powdery Mildew (CPM) protectant fungicide data, percent control)","pest or weed control at 300 g/ha ([2]; Pyricularia oryzae, topical, 144 h, read-out: Rice Blast (RB) protectant fungicide data, percent control, protectant, 300 g/ha, greenhouse)"
CCOC(=O)CN1N=C(c2ccc(Cl)c(Cl)c2)NCC1=O [Compound 102],50 percent control,85 percent control,–,–
CCCCN1N=C(c2cc(Cl)cc(Cl)c2)NCC1=O [Compound 104],80 percent control,99 percent control,–,–
Cc1ccccc1C1=NN(CC(F)(F)F)C(=O)C(O)N1 (stereo not drawn) [Compound 105],75 percent control,85 percent control,–,–
CCCCN1N=C(c2ccc(F)c(Cl)c2)NCC1=O [Compound 106],95 percent control,100 percent control,–,–
CCCN1N=C(c2cc(Cl)cc(Cl)c2)NCC1=O [Compound 107],95 percent control,99 percent control,–,–
CCOCCN1N=C(c2cc(Cl)cc(Cl)c2)NCC1=O [Compound 108],85 percent control,90 percent control,–,–
O=C1CNC(c2cccc(Cl)c2)=NN1c1ccccc1 [Compound 111],90 percent control,85 percent control,–,–
C=COC(=O)N1CC(=O)N(CC(F)(F)F)N=C1c1cc(Cl)cc(Cl)c1 [Compound 113],75 percent control,99 percent control,–,–
CCCCN1N=C(c2cccc(OC)c2)NCC1=O [Compound 114],0 percent control,75 percent control,–,–
CCCCN1N=C(c2cccc(C(F)(F)F)c2)NCC1=O [Compound 115],50 percent control,100 percent control,–,–
CCCCN1N=C(c2ccc(OCC)cc2)NCC1=O [Compound 116],0 percent control,85 percent control,–,–
CCCCN1N=C(c2ccc(C(F)(F)F)cc2)NCC1=O [Compound 117],0 percent control,90 percent control,–,–
CCCCN1N=C(c2cc(Cl)cc(Cl)c2)N(C(=O)OCOC(C)=O)CC1=O [Compound 118],0 percent control,90 percent control,–,–
CCCCN1N=C(c2ccc3ccccc3c2)NCC1=O [Compound 119],0 percent control,99 percent control,–,–
CCCCN1N=C(c2cc(Br)c(OC)c(Br)c2)NCC1=O [Compound 120],0 percent control,80 percent control,–,–
CCCCN1N=C(c2c(Cl)cncc2Cl)NCC1=O [Compound 121],0 percent control,80 percent control,–,–
CN1N=C(c2ccc(C(F)(F)F)cc2)NCC1=O [Compound 122],75 percent control,75 percent control,–,–
O=C1CNC(c2ccc3ccccc3c2)=NN1 [Compound 124],0 percent control,75 percent control,–,–
